Results as given in publication doi:10.1101/2020.10.02.321802v3 (bioRxiv, 2020).
≈ marks a conversion by molar mass, not a printed value. Bridge positions count the residues as written; N and C are the ends. Square brackets hold non-standard residues; d marks the D form. Peptide text beside a SMILES is read from it. * marks the point of attachment. X1 = CC[C@H](C)CCCCC(=O)*; Dab = NCC[C@H](N)C(=O)O

Tests used:
E. coli ATCC 25922 = assay: MIC and IC50 measurement; format: cell-based, Escherichia coli; details: for IC50 / MIC: OD590 after 16 hours
E. coli MG1655 [1] = assay: Growth curves with single AMPs and combinations of AMPs; format: cell-based, Escherichia coli; details: single compound at the "full" concentration, 6 hours
P. aeruginosa PA14 = assay: MIC and IC50 measurement; format: cell-based, Pseudomonas aeruginosa; details: for IC50 / MIC: OD590 after 16 hours
E. coli MG1655 [2] = assay: MIC and IC50 measurement; format: cell-based, Escherichia coli; details: for IC50 / MIC: OD590 after 16 hours
[3] = ref Michod et al., 2009; cited from earlier work
[4] = test system: ΔlpxL deletion mutant (Keio deletion library); assay: MIC and IC50 on Keio collection strains; format: cell-based, Escherichia coli
[5] = test system: ΔrfaY deletion mutant (Keio deletion library); assay: MIC and IC50 on Keio collection strains; format: cell-based, Escherichia coli
S. aureus ATCC 29213 = assay: Selection of resistant mutants by serial passage, MIC per passage; format: cell-based, Staphylococcus aureus
[6] = test system: wild-type strain (Keio deletion library); assay: MIC and IC50 on Keio collection strains; format: cell-based, Escherichia coli
[7] = LB Mg^high (LB with 2 mM MgSO4)
[8] = LB containing EDTA at concentrations that do not affect bacterial proliferation
[9] = BM2 Mg^high (BM2 with 2 mM MgSO4)
[10] = BM2 Mg^low (BM2 with 20 μM MgSO4)

Row | Compound | IC50 (E. coli ATCC 25922; [7]) | MIC (E. coli ATCC 25922; [7]) | IC50 (E. coli ATCC 25922; LB) | MIC (E. coli ATCC 25922; LB) | growth inhibition (E. coli MG1655 [1]) | IC50 (P. aeruginosa PA14; [9]) | MIC (P. aeruginosa PA14; [9]) | MIC (P. aeruginosa PA14; [10]) | MIC (P. aeruginosa PA14; [7]) | IC50 (P. aeruginosa PA14; LB) | MIC (P. aeruginosa PA14; LB) | IC50 (E. coli MG1655 [2]; [9]) | MIC (E. coli MG1655 [2]; [9]) | IC50 (E. coli MG1655 [2]; [10]) | MIC (E. coli MG1655 [2]; [10]) | MIC (E. coli MG1655 [2]; [7]) | MIC (E. coli MG1655 [2]; LB) | IC50 (E. coli MG1655 [2]; LB, GraphPad Prism 8) | further results
1 | CC[C@H](C)CCCCC(=O)N[C@@H](CCN)C(=O)N[C@H](C(=O)N[C@@H](CCN)C(=O)N[C@H]1CCNC(=O)[C@H]([C@@H](C)O)NC(=O)[C@H](CCN)NC(=O)[C@H](CCN)NC(=O)[C@H](CC(C)C)NC(=O)[C@@H](Cc2ccccc2)NC(=O)[C@H](CCN)NC1=O)[C@@H](C)O [Polymyxin B, polymyxin B] (X1-[Dab]T[Dab][Dab][Dab][dF]L[Dab][Dab]T; lactam 4-C (inferred); N-terminus assumed) | 2.7 mg/L | 4 mg/L | 1.8 mg/L | 2 mg/L | ~ 35% | 0.5 mg/L | 1 mg/L | 4 mg/L | 2 mg/L | 2.1 mg/L | 4 mg/L | 0.8 mg/L | 2 mg/L | 1.0 mg/L | 2 mg/L | 2 mg/L | 1 mg/L | 0.6 mg/L | effect of EDTA on MIC (E. coli ATCC 25922; [8]): less affected; increase of MIC by low magnesium in BM2 medium (P. aeruginosa PA14; BM2 Mg^low vs BM2 Mg^high): 4 fold; impact of low magnesium in BM2 medium on MIC (E. coli MG1655 [2]; BM2 Mg^low vs BM2 Mg^high): no impact; effect of EDTA on MIC (E. coli MG1655 [2]; [8]): less affected; effect of soluble LPS on efficacy (MIC) (E. coli MG1655 [2]; LB containing purified E. coli LPS, averages of two independent experiments): greatly diminishes the efficacy
2 | CSCC[C@@H](NC(=O)[C@@H](Cc1c[nH]c2ccccc12)NC(=O)[C@H](NC(=O)[C@H](NC(=O)[C@@H](CC(N)=O)NC(=O)[C@@H](CC(C)C)NC(=O)[C@@H](CCCNC(=N)N)NC(=O)[C@H](NC(=O)[C@H](N)CC(=O)O)[C@H](C)O)[C@H](C)O)C(C)C)C(=O)N[C@H](Cc1c[nH]c2ccccc12)C(=O)NCC(=O)NCC(=O)N[C@H](CCCNC(=N)N)C(=O)N[C@H](CCCNC(=N)N)C(=O)N[C@H](CCCNC(=N)N)C(=O)N[C@H](CCC(N)=O)C(=O)N[C@H](CCCNC(=N)N)C(=O)N[C@H](CCCNC(=N)N)C(=O)N[C@H](CCCCN)C(=O)N[C@H](CCCCN)C(=O)N[C@H](CCCNC(=N)N)C(=O)NCC(=O)O [TAT-RasGAP317-326] (H-[dD][dT][dR][dL][dN][dT][dV][dW][dM][dW]GG[dR][dR][dR][dQ][dR][dR][dK][dK][dR]G-OH) | 52 µM | 128 µM | 5.2 µM | 8 µM | – | 10.1 µM | 32 µM | 4 µM | 64 µM | 7.2 µM | 32 µM | 2 µM | 4 µM | 0.3 µM | 0.5 µM | 32 µM | 8 µM | 3 µM | biodistribution and clearance [3]: poor biodistribution and rapid clearance; IC50 ([4]; Strain 1): 2 µM; MIC ([4]; Strain 1): 2.5 µM (≈ 7.04 µg/mL); IC50 ([4]; Strain 2): 2.2 µM; MIC ([4]; Strain 2): 2.5 µM (≈ 7.04 µg/mL); IC50 (P. aeruginosa PA14; [10]): 1.7 µM; IC50 (P. aeruginosa PA14; [7]): 20.8 µM; IC50 ([5]; Strain 1): 7.1 µM; MIC ([5]; Strain 1): 10 µM (≈ 28.1 µg/mL); IC50 ([5]; Strain 2): 7.8 µM; MIC ([5]; Strain 2): 10 µM (≈ 28.1 µg/mL); IC50 (E. coli MG1655 [2]; [7]): 16.3 µM; MIC after selection (S. aureus ATCC 29213; S. aureus passaged in presence of peptide, rapidly increased): 256 µM; MIC of the parental strain (S. aureus ATCC 29213; parental strain of S. aureus): 64 to 128 µM; IC50 ([6]; Strain 1): 4.1 µM; MIC ([6]; Strain 1): 7.5 µM (≈ 21.1 µg/mL); IC50 ([6]; Strain 2): 4.8 µM; MIC ([6]; Strain 2): 7.5 µM (≈ 21.1 µg/mL)
3 | melittin | – | – | – | – | ~ 20% | – | – | – | – | – | – | – | – | – | – | – | – | – | –
